In brackets after ≈: the same amount, converted by molar mass. Where two headings read alike, the source gives them in different places.

The text below walks through data of patent publication US4668782A, “Anhydrous crystalline or crystalline hemihydrate monohydrate or trihydrate of cephalosporin derivative” (Teijin Limited, priority 1984, dated 1987).

In data set [1] the test system is Staphylococcus aureus FDA 209 PJC-1. The data set is described as follows: antibacterial activity, agar dilution plating method (MIC). The data set is classed as cell-based. Particulars: FDA209. As for the experimental part: (§1) (ii) The antibacterial activity of the obtained amorphous substance was determined according to the ordinary agar dilution plating method (see the Chemotherapy, 23(8), 1 (1975), of Japan Chemotherapy Society).
On the technique in general: In agar dilution the substance is mixed into plates at graded concentrations.

For data set [2], the system named is Coliform bacillus NIHJ-JC-2. The description is as above. The data set is classed as cell-based. Particulars: NIHJJC2. As for the experimental part:
as §1

A further data set has as its system Typhoid bacillus 901. Described as above. The data set is classed as cell-based. The procedure: as §1
The next data set deals with Proteus vulgaris OX-19. Described as above. The data set is classed as cell-based. Particulars: OX19. As for the experimental part: as §1
In data set [3] the test system is Bacillus prodigiosus IAM 1184. The data set is described as above. The data set is classed as cell-based. Particulars: IAM1184. The procedure: as §1
Data set [4] relates to Pseudomonas aeruginosa IFO 3445. Described as above. The data set is classed as cell-based. Conditions: IFO3445. As for the experimental part: as §1
Data set [5] concerns Aerobacter aerogenes ATCC 13048. The data set is described as above. The data set is classed as cell-based. Particulars: Klebsiella aerogenes, ATCC13048. The procedure: as §1
Another data set is described as follows: physchem. Conditions: water.
The test system of data set [6] is various kinds of Gram-positive and Gram-negative bacterias. The data set is described as follows: antibacterial activity against Gram-positive and Gram-negative bacteria (general statement). The data set is classed as cell-based.
Data set [7] relates to Gram-positive and Gram-negative bacterials. Particulars: Japanese Laid-Open Patent Publication No. 219292/1984; cited from earlier work.
The format of data set [8] is physicochemical. Conditions: sealed brown vials. The procedure: (2) The trihydrate, monohydrate, hemihydrate, and anhydride were sealed up in the brown vials respectively and stored at 85° C. and were analyzed by high performance liquid chromatography later. The result is shown in the following table (residuum percentage: %).
Another data set is described as follows: moisture uptake. The data set is classed as physicochemical.

Regarding `CO/N=C(\C(=O)N[C@@H]1C(=O)N2C(C(=O)[O-])=C(C[N+]34CCC(CC3)CC4)CS[C@H]12)c1nsc(N)n1` [cephalosporin derivative B, (6R,7R)-7-[(Z)-2-(5-amino-1-thia-2,4-diazole-3-yl)-2-methoxyiminoacetoamido]-3-(1-quinuclidiniummethyl)-3-cephem-4-carboxylate], the minimum inhibitory concentration (MIC) (in general, the least concentration at which growth counts as inhibited) worked out at 3.1 µg/mL (≈ 6.11 µM) in [1]; 0.05 µg/mL (≈ 0.0985 µM) in [2]; 0.2 µg/mL (≈ 0.394 µM) against Typhoid bacillus 901; 0.2 µg/mL (≈ 0.394 µM) in the data set with Proteus vulgaris OX-19; 0.1 µg/mL (≈ 0.197 µM) in [3]; 0.4 µg/mL (≈ 0.788 µM) in [4]. This compound gave an MIC in data set [5] of 0.1 µg/mL (≈ 0.197 µM). The solubility – broadly, the dissolved amount per volume that the medium holds – in “physchem” was about 300 mg/mL (≈ 591000 µM). Moreover, the antibacterial activity entry in data set [6] is on record as “strong antibacterial activity”.
Compound `CO/N=C(\C(=O)N[C@@H]1C(=O)N2C(C(=O)[O-])=C(C[N+]34CCC(CC3)CC4)CS[C@H]12)c1csc(N)n1` [cephalosporin derivative A, (6R,7R)-7-[(Z)-2-(2-aminothiazole-4-yl)-2-methoxyiminoacetoamido]-3-(1-quinuclidiniummethyl)-3-cephem-4-carboxylate] came in with a solubility in the data set “physchem” of about 300 mg/mL (≈ 592000 µM). Further, the antibacterial activity result in data set [7] was “strong antibacterial activity”.
For the compound `CO/N=C(\C(=O)N[C@@H]1C(=O)N2C(C(=O)[O-])=C(C[N+]34CCC(CC3)CC4)CS[C@H]12)c1csc(N)n1` [Trihydrate, (6R,7R)-7-[(Z)-2-(2-aminothiazole-4-yl)-2-methoxyiminoacetoamido]-3-(1-quinuclidiniummethyl)-3-cephem-4-carboxylate], the residuum percentage in data set [8] (240 h) is listed as 97.0%; in data set [8] (576 h), 86.8%.
Take `CO/N=C(\C(=O)N[C@@H]1C(=O)N2C(C(=O)[O-])=C(C[N+]34CCC(CC3)CC4)CS[C@H]12)c1csc(N)n1` [Anhydride, (6R,7R)-7-[(Z)-2-(2-aminothiazole-4-yl)-2-methoxyiminoacetoamido]-3-(1-quinuclidiniummethyl)-3-cephem-4-carboxylate]: the residuum percentage in [8] (240 h) was determined as 97.5%; in data set [8] (576 h), 86.0%. In the data set “moisture uptake”, the “conversion upon being allowed to take up moisture” value is recorded as “reversionally converted back to the original trihydrate”.
As to `CO/N=C(\C(=O)N[C@@H]1C(=O)N2C(C(=O)[O-])=C(C[N+]34CCC(CC3)CC4)CS[C@H]12)c1csc(N)n1` [Amorphous substance, (6R,7R)-7-[(Z)-2-(2-aminothiazole-4-yl)-2-methoxyiminoacetoamido]-3-(1-quinuclidiniummethyl)-3-cephem-4-carboxylate], the residuum percentage in data set [8] (240 h) and in [8] (576 h) was 0% throughout.
Take `CO/N=C(\C(=O)N[C@@H]1C(=O)N2C(C(=O)[O-])=C(C[N+]34CCC(CC3)CC4)CS[C@H]12)c1csc(N)n1` [Monohydrate, (6R,7R)-7-[(Z)-2-(2-aminothiazole-4-yl)-2-methoxyiminoacetoamido]-3-(1-quinuclidiniummethyl)-3-cephem-4-carboxylate]: the values for the residuum percentage in data set [8] (240 h) and in data set [8] (576 h) were 96.1% and 85.5%, respectively. Besides, in the data set “moisture uptake”, the “conversion upon being allowed to take up moisture” value is “reversionally converted back to the original trihydrate”.
The corresponding values for `CO/N=C(\C(=O)N[C@@H]1C(=O)N2C(C(=O)[O-])=C(C[N+]34CCC(CC3)CC4)CS[C@H]12)c1csc(N)n1` [Hemihydrate, (6R,7R)-7-[(Z)-2-(2-aminothiazole-4-yl)-2-methoxyiminoacetoamido]-3-(1-quinuclidiniummethyl)-3-cephem-4-carboxylate] are 98.3%, 86.3% and “reversionally converted back to the original trihydrate”.
